From patent US9062051B2, “Compounds and pharmaceutical compositions thereof for the treatment of proliferative disorders” (GALAPAGOS NV, priority 2014, dated 2015)
“Also recorded” adds a separate entry of the source.

Key:
MDA-MB-231 cells = test: Mouse xenograft model of human triple negative breast cancer (MDA-MB-231), tumorous growth inhibition; format: in vivo, Female BALB/c Mice; conditions: for RTV (Relative Tumor Volume) / T/C (Tumour Vs Control) / TGI (Tumor Growth Inhibition): p.o., qd
Experimental: Animals (Female BALB/c Mice, Harlan, 51930, 18-20 g) are provided with filtered tap water and standard chow ad libitum and maintained at 22±2° C. in 55±10% humidity on a 12 h light/dark cycle.
Paclitaxel used as a positive control is formulated by 1/3 dilution of commercial solution (Fresenius kabi, 871WF014/4) in saline.
The test compounds for po administration are formulated in 0.5% methylcellulose (VWR, ref AX021233).
MDA-MB-231 cell line is obtained from the ATCC collection (ref HTB-26). The cells are then cultured in RPMI 1640 medium supplemented with […] (Gibco 15140-148) and 1% (v/v) L-Glutamine 200 mM (Gibco 25030-024) at 37° C. in a 5% CO2 incubator.
5 million MDA-MB-231 cells/mice in 0.1 mL of 50% Matrigel (BD biosciences, LDEV free 256235)+50% D-PBS 1× (Gibco 14190-086) are injected by subcutaneous route on the upper back of 120 mice. Prior to implantation, mice are anesthetized by intra-peritoneal injection with a 0.1 mL/10 g dose of anaesthetic solution (18 mL NaCl, 0.9%+0.5 mL xylazine, +1.5 mL ketamine. […]
Body weight, and tumor growth is recorded twice a week during the course of treatment.
After 26 days the treatment is stopped, in each group half of the mice are euthanized for tissue collection, and the other half is kept for a further 7 days, during which period body weight and tumour sized are measured.
In sacrificed mice, blood and tumours are collected, analysed, and the effect of the test compounds is compared with controls (vehicle and paclitaxel).
The values were obtained using the following calculations
Relative Tumor Volume (RTV):
Tumor Growth Inhibition (TGI) TGI=1−T/C

[1] = Plasma exposure at day 7 in the MDA-MB-231 xenograft experiment; format: in vivo, Female BALB/c Mice; conditions: for AUC: female, BALB/c, mouse, plasma, po
Experimental: 5 million MDA-MB-231 cells/mice in 0.1 mL of 50% Matrigel (BD biosciences, LDEV free 256235)+50% D-PBS 1× (Gibco 14190-086) are injected by subcutaneous route on the upper back of 120 mice. Prior to implantation, mice are anesthetized by intra-peritoneal injection with a 0.1 mL/10 g dose of anaesthetic solution (18 mL NaCl, 0.9%+0.5 mL xylazine, +1.5 mL ketamine. After implantation, tumours are regularly measured with a calliper, and mice with a mean tumour volume of about 200 mm^3 are randomized into groups of 10 individuals, and each group is dosed either with vehicle (p.o.), paclitaxel as control (3×/week, 20 mg/kg i.p.), or a test compound at doses of 3, 10, 30 or 100 mg/kg (p.o., QD, in 10 mL/kg administration volume)
Even at a 10 fold higher dosing (300 mg/kg, p.o.), Comparative Compound A remains 3.9 fold less exposed than Compound 55.

| exposure compared with comparative Compound A ([1]; even if Compound A is administered at a 10 fold higher dose) | AUC ([1]; day 7, 30 mg/kg p.o.) | fold higher exposure than the comparison compound A ([1]; plasma exposure at day 7, both at 30 mg/kg p.o.) | AUC ([1]; day 7, 100 mg/kg p.o.) | AUC ([1]; day 7, 300 mg/kg p.o.) | fold less exposed than Compound 55 ([1]; plasma exposure at day 7, Compound A at 300 mg/kg p.o. (10 fold higher dosing)) | SMILES | tumour growth (MDA-MB-231 cells; 30 mg/kg p.o., QD, 26 days treatment, MDA-MB-231 xenograft) | RTV (Relative Tumor Volume) (MDA-MB-231 cells; day 26, 30 mg/kg) | T/C (Tumour Vs Control) (MDA-MB-231 cells; day 26, 30 mg/kg) | TGI (Tumor Growth Inhibition) (MDA-MB-231 cells; day 26, 30 mg/kg) | RTV (Relative Tumor Volume) (MDA-MB-231 cells; day 26, 100 mg/kg) | T/C (Tumour Vs Control) (MDA-MB-231 cells; day 26, 100 mg/kg) | TGI (Tumor Growth Inhibition) (MDA-MB-231 cells; day 26, 100 mg/kg) | RTV (Relative Tumor Volume) (MDA-MB-231 cells; day 26, 300 mg/kg) | T/C (Tumour Vs Control) (MDA-MB-231 cells; day 26, 300 mg/kg) | TGI (Tumor Growth Inhibition) (MDA-MB-231 cells; day 26, 300 mg/kg) | anti-tumour effect (MDA-MB-231 cells; dosed at 30, 100 or 300 mg/kg, 26 days treatment, MDA-MB-231 xenograft) |
| --- | --- | --- | --- | --- | --- | --- | --- | --- | --- | --- | --- | --- | --- | --- | --- | --- | --- |
| higher | 31000 ng·h/mL | > 24 fold | – | – | – | Cc1ccc(NC(=O)c2cccc(C(F)(F)F)c2)cc1-c1ccc2c([C@H](C)O)n[nH]c2n1 [Compound 55, N-{3-[3-((S)-1-Hydroxy-ethyl)-1H-pyrazolo[3,4-b]pyridin-6-yl]-4-methyl-phenyl}-3-trifluoromethyl-benzamide] | complete block of tumour growth; also recorded: blocks tumorous growth | 1.01 | 0.14% | 99.86% | – | – | – | – | – | – | – |
| – | 1280 ng·h/mL | – | 4240 ng·h/mL | 7920 ng·h/mL | 3.9 fold | Cc1ccc(NC(=O)c2cccc(C(F)(F)F)c2)cc1-c1cc(C)c2c(N)n[nH]c2n1 [Compound A, N-(3-(3-amino-4-methyl-1H-pyrazolo[3,4-b]pyridin-6-yl)-4-methylphenyl)-3-(trifluoromethyl)benzamide] | – | 3.40 | 54.89% | 45.11% | 3.09 | 47.80% | 52.20% | 4.74 | 85.40% | 14.60% | shows a plateau of its anti-tumour effect and is not able to achieve the same effect on inhibition of tumour growth |
